# According to ChEMBL document CHEMBL1201862, “PubChem BioAssay data set” (2004):
# Where “and” joins values, the source holds several entries; their conditions need not be identical. Identical values can stand only once. Calls of active or inactive are those of the source.
# Legend:
# A-375 [1] = test: A375 melanoma cell viability reduction, dose response, counter-screen for MITF modulator project, cherry-pick samples, set 2 (AID 540335); format: functional, cell-based; conditions: Homo sapiens
# A-375 [2] = test: MITF: Counter assay: A375 proliferation Measured in Cell-Based System Using Plate Reader - 2084-03_Inhibitor_Dose_DryPowder_Activity. [Related pubchem assays (depositor defined):AID488944]; format: functional; conditions: Homo sapiens
# [3] = biological target: Ras and Rab interactor 1/Tyrosine-protein kinase ABL1 (Homo sapiens, UniProt P00519+Q13671); format: functional;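 note: biochemical TR-FRET dose-response test measuring inhibition of binding between Rin1 and Abl proteins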
# [4] = miR-122 activators in hepatoma reporter cells, dose response, cell-based, Huh7 psiCHECK-miR122, Renilla luciferase, cherry-picked (AID 651956); format: functional;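 note: huh7 hepatoma cells stably carrying a psiCHECK-2 miR-122 sensor plasmid; renilla luciferase signal reporting endogenous miR-122 activity after 48 h compound exposure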
# [5] = biological target: T1, Aryl hydrocarbon receptor (Homo sapiens, UniProt P35869); conditions: Potency;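 note: confirmatory quantitative high-throughput screen measuring activation of the AhR signaling pathway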
# T1 sequence (P35869 whole entry): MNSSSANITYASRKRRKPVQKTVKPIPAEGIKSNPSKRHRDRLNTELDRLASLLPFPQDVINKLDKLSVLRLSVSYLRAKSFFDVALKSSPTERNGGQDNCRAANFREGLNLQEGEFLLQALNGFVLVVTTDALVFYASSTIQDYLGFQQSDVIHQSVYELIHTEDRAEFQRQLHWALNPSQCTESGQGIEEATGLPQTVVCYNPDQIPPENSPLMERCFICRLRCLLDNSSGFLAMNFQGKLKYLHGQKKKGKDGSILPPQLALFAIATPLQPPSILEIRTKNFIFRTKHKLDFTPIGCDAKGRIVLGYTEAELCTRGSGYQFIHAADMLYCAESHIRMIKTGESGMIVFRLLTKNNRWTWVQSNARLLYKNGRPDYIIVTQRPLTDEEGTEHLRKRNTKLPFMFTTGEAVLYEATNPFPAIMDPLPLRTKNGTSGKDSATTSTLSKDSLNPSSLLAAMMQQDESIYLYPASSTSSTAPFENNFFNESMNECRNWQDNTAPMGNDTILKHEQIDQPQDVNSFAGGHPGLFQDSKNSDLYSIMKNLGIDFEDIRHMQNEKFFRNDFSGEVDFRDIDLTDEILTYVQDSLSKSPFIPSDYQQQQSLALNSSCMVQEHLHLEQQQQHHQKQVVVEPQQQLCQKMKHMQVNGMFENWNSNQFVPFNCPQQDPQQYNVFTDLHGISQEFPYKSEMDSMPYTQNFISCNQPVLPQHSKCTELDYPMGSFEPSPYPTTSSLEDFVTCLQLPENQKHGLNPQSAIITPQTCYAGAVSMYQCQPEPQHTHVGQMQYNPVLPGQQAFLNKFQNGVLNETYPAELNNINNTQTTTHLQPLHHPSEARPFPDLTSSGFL
# Cytochrome P450 3A4 = Cytochrome P450 3A4 (Homo sapiens, UniProt P08684); conditions: Potency;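 note: confirmatory qHTS run detecting inhibitors and substrates of CYP3A4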
# [6] = biological target: T2, DNA repair and recombination protein RAD54-like (Homo sapiens, UniProt Q92698); test: inhibitors of human RAD54 branch migration, confirmation, biochemical, fluorescence, cherry-picked samples, dose series (AID 651657); format: functional
# T2 sequence (Q92698 whole entry): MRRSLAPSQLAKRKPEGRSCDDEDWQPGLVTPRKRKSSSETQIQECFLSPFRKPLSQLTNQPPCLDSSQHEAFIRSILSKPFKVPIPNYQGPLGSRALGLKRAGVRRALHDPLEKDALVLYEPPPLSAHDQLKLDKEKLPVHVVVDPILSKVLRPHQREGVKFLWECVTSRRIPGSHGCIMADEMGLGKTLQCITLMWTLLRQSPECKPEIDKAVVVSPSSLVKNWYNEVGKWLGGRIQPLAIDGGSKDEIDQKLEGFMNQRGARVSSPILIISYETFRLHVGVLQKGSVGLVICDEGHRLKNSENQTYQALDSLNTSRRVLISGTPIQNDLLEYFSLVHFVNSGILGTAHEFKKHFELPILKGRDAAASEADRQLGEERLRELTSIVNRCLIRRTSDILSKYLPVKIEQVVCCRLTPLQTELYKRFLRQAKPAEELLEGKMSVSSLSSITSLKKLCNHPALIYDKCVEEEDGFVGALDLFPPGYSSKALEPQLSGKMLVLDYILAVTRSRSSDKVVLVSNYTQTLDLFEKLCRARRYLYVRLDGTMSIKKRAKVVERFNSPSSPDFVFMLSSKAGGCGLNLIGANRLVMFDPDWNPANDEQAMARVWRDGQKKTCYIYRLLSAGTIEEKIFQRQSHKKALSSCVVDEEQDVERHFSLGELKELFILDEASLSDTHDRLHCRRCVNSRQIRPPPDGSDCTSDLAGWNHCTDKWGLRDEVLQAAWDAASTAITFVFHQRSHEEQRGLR
# [7] = biological target: T3, Carboxy-terminal domain RNA polymerase II polypeptide A small phosphatase 1 (Homo sapiens, UniProt Q9GZU7); test: inhibitors of CTDSP1, concentration-response testing, biochemical assay, absorbance-based, actives from ultra-high-throughput screening (AID 540297); format: functional
# T3 sequence (Q9GZU7 whole entry): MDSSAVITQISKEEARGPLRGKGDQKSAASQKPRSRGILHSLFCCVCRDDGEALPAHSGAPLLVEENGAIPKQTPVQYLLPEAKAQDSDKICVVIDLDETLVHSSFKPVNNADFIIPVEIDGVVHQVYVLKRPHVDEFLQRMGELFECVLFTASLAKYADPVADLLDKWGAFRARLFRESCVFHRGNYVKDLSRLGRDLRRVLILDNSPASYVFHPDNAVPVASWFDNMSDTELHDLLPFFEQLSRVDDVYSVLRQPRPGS
# P388/ADR = test: cells; format: functional; conditions: Mus musculus
# P388 = test: cells; format: functional; conditions: Mus musculus
# SN12K1 = test: cells; format: functional; conditions: Homo sapiens
# [8] = biological target: DNA dC->dU-editing enzyme APOBEC-3A (Homo sapiens, UniProt P31941); test: Dose Response confirmation of small molecule APOBEC3A DNA Deaminase Inhibitors via a fluorescence-based single-stranded DNA deaminase assay. [Related pubchem assays (depositor defined):AID493011, AID493024]; format: functional
# [9] = biological target: DNA dC->dU-editing enzyme APOBEC-3G (Homo sapiens, UniProt Q9HC16); format: functional;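 note: Dose-response counterscreen measuring inhibition of APOBEC3G DNA deaminase activity, run while confirming APOBEC3A inhibitors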
# [10] = HEp-2 cell cytotoxicity, dose response, cytotoxicity control for RSV inhibitor project, HTS (AID 2410); format: functional; conditions: human respiratory syncytial virus
# [11] = biological target: T4, Apoptotic protease-activating factor 1 (Homo sapiens, UniProt O14727); format: functional
# T4 sequence (O14727 whole entry): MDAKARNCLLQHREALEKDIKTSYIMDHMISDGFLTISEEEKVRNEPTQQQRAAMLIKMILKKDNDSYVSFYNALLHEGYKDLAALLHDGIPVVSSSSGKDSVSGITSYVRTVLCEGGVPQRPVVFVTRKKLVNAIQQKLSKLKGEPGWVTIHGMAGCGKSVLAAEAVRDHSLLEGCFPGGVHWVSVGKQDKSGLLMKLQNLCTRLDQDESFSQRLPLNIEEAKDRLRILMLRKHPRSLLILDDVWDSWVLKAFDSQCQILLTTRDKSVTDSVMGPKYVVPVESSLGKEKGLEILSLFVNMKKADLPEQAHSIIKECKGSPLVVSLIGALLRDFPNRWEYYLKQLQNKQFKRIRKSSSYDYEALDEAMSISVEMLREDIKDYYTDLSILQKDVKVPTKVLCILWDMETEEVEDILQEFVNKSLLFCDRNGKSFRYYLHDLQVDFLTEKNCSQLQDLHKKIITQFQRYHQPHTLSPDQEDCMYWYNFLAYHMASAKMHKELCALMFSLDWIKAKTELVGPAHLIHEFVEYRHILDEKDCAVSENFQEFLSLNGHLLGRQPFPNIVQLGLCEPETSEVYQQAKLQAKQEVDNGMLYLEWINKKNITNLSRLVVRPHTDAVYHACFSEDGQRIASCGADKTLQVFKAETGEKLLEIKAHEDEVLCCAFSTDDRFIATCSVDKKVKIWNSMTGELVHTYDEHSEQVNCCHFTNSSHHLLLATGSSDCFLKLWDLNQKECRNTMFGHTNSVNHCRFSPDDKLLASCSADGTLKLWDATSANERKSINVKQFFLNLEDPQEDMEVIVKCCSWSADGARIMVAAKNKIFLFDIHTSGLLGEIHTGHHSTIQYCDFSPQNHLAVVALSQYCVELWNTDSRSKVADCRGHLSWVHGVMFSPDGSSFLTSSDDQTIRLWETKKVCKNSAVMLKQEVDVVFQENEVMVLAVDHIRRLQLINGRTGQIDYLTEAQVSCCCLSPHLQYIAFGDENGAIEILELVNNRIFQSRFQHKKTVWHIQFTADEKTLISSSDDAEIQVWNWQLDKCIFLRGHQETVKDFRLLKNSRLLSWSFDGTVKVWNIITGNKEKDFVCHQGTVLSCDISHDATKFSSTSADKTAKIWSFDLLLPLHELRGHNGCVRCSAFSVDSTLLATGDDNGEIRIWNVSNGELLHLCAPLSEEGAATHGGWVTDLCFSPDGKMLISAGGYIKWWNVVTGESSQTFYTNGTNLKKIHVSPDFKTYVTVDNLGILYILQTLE
# [12] = NIH-3T3 fibroblast cytotoxicity, dose response, cytotoxicity control, cell-based, fluorescence, Alamar Blue, secondary assay (AID 2327); format: functional;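 note: NIH-3T3 mouse fibroblasts cultured with fluconazole at 8 µg/mL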
# INS1 = test: beta cell apoptosis inhibitors, cytokine rescue, dose response, luminescence, retest (AID 449756); format: functional, cell-based; conditions: Rattus norvegicus;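 note: cell death triggered by IL-1 beta plus TNF-alpha plus IFN-gamma mixture; protective hits raise ATP signal compared with cytokine alone wells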
# [13] = C. albicans growth with fluconazole, confirmation, fluorescence, retest (AID 2467); format: functional, cell-based
# Protein Wnt-3a = Protein Wnt-3a (Mus musculus, UniProt P27467); test: Wnt3a-driven reporter signaling inhibition, dose response, selectivity assay for Gli-SUFU antagonist project, Wnt-LIGHT cells, luminescence (AID 651570); format: functional; conditions: read-out: IC50_Mean;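 note: Wnt-LIGHT reporter cells stimulated with conditioned medium from Wnt3a-producing cells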
# HEK293 = test: inhibitors of LMP1-driven NF-kB reporter, dose response, cell-based, HEK293, luciferase, cherry-pick (AID 588343); format: functional; conditions: Homo sapiens
# [14] = biological target: T5, Ubiquitin-conjugating enzyme E2 N (Homo sapiens, UniProt P61088); format: functional;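 note: Dose-response confirmation in a TR-FRET assay detecting UBC13-driven polyubiquitin chain formation, inhibition measured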
# T5 sequence (P61088 whole entry): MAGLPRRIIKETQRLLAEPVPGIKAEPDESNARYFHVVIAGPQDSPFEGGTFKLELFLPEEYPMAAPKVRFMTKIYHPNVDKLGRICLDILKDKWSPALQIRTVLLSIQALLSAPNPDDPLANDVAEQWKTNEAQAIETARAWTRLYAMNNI
# Chain of Ras and Rab interactor 1/Tyrosine-protein kinase ABL1 (P00519 whole entry): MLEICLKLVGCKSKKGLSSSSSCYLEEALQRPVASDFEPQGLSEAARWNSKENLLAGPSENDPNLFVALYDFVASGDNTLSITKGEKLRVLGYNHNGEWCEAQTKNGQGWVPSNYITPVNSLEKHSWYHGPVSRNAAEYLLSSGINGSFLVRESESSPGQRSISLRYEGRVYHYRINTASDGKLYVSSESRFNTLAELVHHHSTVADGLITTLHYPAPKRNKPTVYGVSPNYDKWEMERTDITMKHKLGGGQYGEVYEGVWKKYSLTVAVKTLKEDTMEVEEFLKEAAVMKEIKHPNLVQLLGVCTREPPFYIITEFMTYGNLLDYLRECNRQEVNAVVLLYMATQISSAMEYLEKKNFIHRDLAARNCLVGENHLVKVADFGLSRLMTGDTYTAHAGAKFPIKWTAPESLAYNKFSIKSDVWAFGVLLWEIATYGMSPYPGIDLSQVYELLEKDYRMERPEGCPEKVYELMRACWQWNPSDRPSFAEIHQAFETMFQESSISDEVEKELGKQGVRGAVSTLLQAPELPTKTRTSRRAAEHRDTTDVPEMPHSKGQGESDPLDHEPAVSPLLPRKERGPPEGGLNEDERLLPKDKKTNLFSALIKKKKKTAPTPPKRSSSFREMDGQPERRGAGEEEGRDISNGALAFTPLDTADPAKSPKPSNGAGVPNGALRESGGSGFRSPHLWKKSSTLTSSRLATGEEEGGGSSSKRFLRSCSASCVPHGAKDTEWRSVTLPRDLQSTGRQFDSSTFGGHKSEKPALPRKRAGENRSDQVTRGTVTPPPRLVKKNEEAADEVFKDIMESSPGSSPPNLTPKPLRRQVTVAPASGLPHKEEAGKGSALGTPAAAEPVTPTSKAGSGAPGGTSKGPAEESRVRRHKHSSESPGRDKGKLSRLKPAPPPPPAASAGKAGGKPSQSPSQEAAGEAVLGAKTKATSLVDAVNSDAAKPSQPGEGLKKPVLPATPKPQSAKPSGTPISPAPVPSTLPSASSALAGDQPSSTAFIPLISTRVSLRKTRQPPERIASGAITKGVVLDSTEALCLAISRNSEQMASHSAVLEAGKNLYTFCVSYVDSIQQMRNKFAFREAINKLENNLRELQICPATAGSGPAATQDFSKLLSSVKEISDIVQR
# Chain of Ras and Rab interactor 1/Tyrosine-protein kinase ABL1 (Q13671 whole entry): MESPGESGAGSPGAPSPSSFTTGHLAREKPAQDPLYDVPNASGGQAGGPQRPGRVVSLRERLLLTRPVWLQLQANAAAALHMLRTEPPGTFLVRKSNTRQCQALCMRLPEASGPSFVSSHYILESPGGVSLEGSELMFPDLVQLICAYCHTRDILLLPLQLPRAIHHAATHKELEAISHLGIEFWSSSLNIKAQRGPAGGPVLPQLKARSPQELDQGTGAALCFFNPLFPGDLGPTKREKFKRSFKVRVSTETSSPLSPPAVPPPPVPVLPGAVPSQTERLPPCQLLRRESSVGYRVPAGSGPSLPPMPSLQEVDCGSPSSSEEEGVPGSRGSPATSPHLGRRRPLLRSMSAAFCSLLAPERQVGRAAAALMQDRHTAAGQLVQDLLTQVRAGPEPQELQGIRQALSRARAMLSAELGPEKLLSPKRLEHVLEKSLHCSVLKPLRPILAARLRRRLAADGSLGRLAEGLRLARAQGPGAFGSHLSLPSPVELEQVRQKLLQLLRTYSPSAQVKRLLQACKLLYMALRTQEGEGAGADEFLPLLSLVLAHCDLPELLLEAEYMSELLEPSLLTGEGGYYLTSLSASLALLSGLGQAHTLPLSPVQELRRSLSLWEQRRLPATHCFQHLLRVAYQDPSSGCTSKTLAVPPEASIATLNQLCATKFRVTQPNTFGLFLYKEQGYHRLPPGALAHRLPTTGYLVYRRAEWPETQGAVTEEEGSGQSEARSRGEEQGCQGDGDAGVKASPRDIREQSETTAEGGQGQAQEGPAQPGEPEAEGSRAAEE
# Chain of DNA dC->dU-editing enzyme APOBEC-3G (Q9HC16 whole entry): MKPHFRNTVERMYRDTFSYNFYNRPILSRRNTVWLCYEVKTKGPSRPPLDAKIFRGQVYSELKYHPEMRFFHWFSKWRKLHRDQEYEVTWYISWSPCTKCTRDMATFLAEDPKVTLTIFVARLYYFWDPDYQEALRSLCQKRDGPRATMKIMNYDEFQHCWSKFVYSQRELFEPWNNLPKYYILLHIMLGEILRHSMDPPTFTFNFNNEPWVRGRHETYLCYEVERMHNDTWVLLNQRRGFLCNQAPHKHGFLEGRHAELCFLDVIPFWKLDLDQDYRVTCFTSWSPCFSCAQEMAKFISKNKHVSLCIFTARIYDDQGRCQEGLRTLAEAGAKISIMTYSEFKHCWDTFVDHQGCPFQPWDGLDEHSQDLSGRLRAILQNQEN
# Chain of DNA dC->dU-editing enzyme APOBEC-3A (P31941 whole entry): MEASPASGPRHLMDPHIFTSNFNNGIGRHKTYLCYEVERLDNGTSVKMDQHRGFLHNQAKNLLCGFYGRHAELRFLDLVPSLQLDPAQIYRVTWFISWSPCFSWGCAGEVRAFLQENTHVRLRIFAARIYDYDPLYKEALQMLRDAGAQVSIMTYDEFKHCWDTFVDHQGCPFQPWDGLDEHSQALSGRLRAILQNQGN
# Chain of Cytochrome P450 3A4 (P08684 whole entry): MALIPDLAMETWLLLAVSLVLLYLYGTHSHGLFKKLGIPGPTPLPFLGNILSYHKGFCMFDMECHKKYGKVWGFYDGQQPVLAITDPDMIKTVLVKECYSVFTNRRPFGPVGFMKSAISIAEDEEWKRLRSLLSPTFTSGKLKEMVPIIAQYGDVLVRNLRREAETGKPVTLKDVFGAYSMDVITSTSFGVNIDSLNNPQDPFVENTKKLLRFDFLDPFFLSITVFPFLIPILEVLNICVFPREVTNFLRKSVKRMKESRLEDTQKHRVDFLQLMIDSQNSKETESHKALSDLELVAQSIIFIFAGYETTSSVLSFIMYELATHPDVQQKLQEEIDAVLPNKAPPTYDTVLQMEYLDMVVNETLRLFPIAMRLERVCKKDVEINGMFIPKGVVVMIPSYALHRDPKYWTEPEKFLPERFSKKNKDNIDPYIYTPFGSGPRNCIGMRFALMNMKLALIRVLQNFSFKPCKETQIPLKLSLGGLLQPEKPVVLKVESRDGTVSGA
# Chain of Protein Wnt-3a (P27467 whole entry): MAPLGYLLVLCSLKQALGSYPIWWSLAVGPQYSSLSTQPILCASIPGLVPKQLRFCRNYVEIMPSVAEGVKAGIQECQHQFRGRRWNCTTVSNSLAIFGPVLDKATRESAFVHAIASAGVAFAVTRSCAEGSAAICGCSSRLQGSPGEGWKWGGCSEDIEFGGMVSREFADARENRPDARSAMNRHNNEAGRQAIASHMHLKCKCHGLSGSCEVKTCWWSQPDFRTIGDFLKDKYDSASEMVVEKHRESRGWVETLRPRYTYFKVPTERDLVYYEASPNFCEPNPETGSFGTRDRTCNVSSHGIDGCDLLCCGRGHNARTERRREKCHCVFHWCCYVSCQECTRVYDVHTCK
smiles,measurement,setting,value
Clc1ccc(-c2noc(CN3CCOCC3)n2)cc1,AC50,A-375 [1],> 35 µM (active)
same,AC50,A-375 [2],> 35 µM (active)
CCOC(=O)c1ccc(NC(=O)COc2ccccc2CNCCO)cc1,IC50,[3],25.3 µM (inactive)
CN1C(=O)c2cc(NC(=O)Cc3ccccc3)ccc2OC[C@@H]2O[C@@H](CC(=O)NCc3ccc(Cl)cc3)CC[C@H]21,AC50,[4],41.4 µM (active)
O=C(CNC(=O)c1ccc(Br)cc1)c1ccccc1,AC50,A-375 [1],> 35 µM (active)
same,AC50,A-375 [2],> 35 µM (active)
O=C(CC1SCCNC1=O)Nc1ccc(F)c(Cl)c1 (stereo not given),IC50,[3],25.7 µM (inactive)
Cc1ccc(N=C=O)cc1N=C=O [TOLUENE DIISOCYANATE],AC50,[5],50.1 µM (inconclusive)
Nc1cc(Cl)c(N)c(Cl)c1,AC50,[5],31.6 µM (inconclusive) and 25.1 µM (inconclusive)
same,AC50,Cytochrome P450 3A4,20 µM (inconclusive)
COc1cc(C(=O)Nc2ccc(O)cc2C(=O)O)ccc1OC(C)=O,IC50,[3],0.659 µM (active)
Nc1c(C(=O)NCCN2CCOCC2)c2nc3ccccc3nc2n1-c1ccc2c(c1)OCO2,AC50,[6],37.3 µM (active)
COc1nc(NC2CCCCC2)nc(NC(C)(C)C)n1,AC50,A-375 [1],> 35 µM (active)
same,AC50,A-375 [2],> 35 µM (active)
CCOC(=O)C[n+]1c2n(c3ccccc31)CC(O)CS2 (stereo not given),IC50,[7],6.53 µM (active)
COC(=O)[C@]12CC=C3O[C@@H]4OC5(CCCCC5)O[C@@H]4[C@H]3C1C(=O)C=CC2=O (stereo not given in full),GI50,P388/ADR,2.96 µM (inactive)
same,GI50,P388,2.81 µM (inactive)
same,GI50,SN12K1,16 µM (inactive)
COc1cc(C2c3cc4c(cc3[C@@H](Nc3ccc5c(c3)OCCO5)C3COC(=O)[C@H]23)OCO4)cc(OC)c1O (stereo not given in full),GI50,P388/ADR,0.229 µM (active)
same,GI50,P388,< 0.01 µM (active)
same,GI50,SN12K1,0.274 µM (active)
CCN(CC)P(c1n(C)cc[n+]1C)N(CC)CC,IC50,[8],2.47 µM (active)
same,IC50,[9],3.2 µM (active)
same,IC50,[7],3.52 µM (active)
CC(=O)c1ccc(N2CCN(S(=O)(=O)c3ccc4c5c3CC(=O)N5CC(C)S4)CC2)cc1 (stereo not given),CC50,[10],17 µM (active)
same,IC50,[11],50.7 µM (active)
Cc1csc2ncnc(NCCc3ccccn3)c12,EC50,[12],> 160 µM (inactive)
same,AC50,INS1,4.39 µM (active)
same,EC50,[13],1.92 µM (active)
same,IC50,Protein Wnt-3a,0.887 µM (active)
CCOC(=O)/C(=C\c1ccccc1)C(=O)CCN1CCOCC1,GI50,P388/ADR,1.13 µM (inactive)
same,GI50,P388,0.627 µM (active)
same,GI50,SN12K1,5.53 µM (inactive)
O=C(/C=C\c1ccc(/C=C/C(=O)Nc2cccc(C3=NCCCN3)c2)cc1)Nc1cccc(C2=NCCCN2)c1,GI50,P388/ADR,79.3 µM (inactive)
same,GI50,P388,0.303 µM (active)
same,GI50,SN12K1,> 100 µM (inactive)
COc1ccc(C(=O)Nn2c(SCC(=O)c3ccc(Cl)cc3)nc3ccccc3c2=O)cc1,AC50,HEK293,8.36 µM (active)
same,IC50,[14],> 20 µM (inactive)
Cc1cccc2sc(N)nc12,AC50,[5],56.2 µM (inconclusive)
Nc1ccc(-c2nc3c(ccc4ccccc43)[nH]2)cc1,AC50,[6],92.4 µM (active)
